Reference: ChEMBL document CHEMBL4303773 (Nature, 2020)

What was measured:
[1] = biological target: T1, Alpha-2C adrenergic receptor (Homo sapiens, UniProt P18825)
T1 sequence (P18825 whole entry): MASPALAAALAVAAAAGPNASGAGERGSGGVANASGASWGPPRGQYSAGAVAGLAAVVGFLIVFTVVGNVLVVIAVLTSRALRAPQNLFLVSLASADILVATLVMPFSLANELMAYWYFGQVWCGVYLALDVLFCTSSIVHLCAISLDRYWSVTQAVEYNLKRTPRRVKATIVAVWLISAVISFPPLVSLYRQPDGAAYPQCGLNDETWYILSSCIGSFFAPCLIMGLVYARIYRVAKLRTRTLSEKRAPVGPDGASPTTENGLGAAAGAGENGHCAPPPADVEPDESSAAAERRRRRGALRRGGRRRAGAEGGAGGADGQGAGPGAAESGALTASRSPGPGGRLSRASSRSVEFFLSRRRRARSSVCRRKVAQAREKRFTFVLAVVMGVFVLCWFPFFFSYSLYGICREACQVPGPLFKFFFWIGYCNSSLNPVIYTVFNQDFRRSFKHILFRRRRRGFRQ
Description: Activity of compound against Alpha 2C (ADRA2C) adrenergic receptor by displacement of [3H]-rauwolscine

[2] = biological target: T2, Muscarinic acetylcholine receptor M1 (Homo sapiens, UniProt P11229)
T2 sequence (P11229 whole entry): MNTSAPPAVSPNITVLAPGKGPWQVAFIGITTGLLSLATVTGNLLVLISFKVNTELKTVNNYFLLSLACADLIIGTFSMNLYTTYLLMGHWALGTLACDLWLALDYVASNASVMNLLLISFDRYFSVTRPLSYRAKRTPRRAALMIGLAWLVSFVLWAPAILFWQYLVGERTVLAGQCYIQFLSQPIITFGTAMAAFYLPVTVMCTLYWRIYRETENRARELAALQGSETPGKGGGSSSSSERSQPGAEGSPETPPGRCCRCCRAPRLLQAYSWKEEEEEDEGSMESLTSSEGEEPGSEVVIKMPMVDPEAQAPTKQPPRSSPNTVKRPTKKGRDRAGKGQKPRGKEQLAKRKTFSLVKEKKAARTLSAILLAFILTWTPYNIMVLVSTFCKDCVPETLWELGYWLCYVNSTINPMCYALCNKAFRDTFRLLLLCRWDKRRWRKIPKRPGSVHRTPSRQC

[3] = biological target: Sigma intracellular receptor 2 (Homo sapiens, UniProt Q5BJF2); assay: Displacement of [3H]-DTG from the Sigma2 receptor
[4] = biological target: Sigma non-opioid intracellular receptor 1 (Homo sapiens, UniProt Q99720)
Description: Displacement of [3H]-pentazocin from the Sigma1 receptor

[5] = biological target: T3, Alpha-2A adrenergic receptor (Homo sapiens, UniProt P08913); assay: Activity of compound against Alpha-2A (ADRA2A) adrenergic receptor by displacement of [3H]-rauwolscine
T3 sequence (P08913 whole entry): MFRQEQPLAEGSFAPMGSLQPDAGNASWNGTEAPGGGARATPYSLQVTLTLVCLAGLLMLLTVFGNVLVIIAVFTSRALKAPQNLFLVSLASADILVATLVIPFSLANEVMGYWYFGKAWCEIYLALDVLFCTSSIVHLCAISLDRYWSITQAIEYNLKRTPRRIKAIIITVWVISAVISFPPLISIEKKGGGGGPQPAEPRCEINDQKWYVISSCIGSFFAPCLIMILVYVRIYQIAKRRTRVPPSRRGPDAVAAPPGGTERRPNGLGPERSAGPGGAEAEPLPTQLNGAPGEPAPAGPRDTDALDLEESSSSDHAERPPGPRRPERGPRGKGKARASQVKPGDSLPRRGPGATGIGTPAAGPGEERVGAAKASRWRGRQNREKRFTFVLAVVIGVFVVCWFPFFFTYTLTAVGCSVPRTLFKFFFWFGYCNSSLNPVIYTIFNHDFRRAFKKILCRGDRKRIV

[6] = biological target: Muscarinic acetylcholine receptor M3 (Homo sapiens, UniProt P20309)
[7] = biological target: T4, Muscarinic acetylcholine receptor M4 (Homo sapiens, UniProt P08173); assay: Activity of compound against Muscarinic acetylcholine receptor M4 (CHRM4) by displacement of 3H-QNB
T4 sequence (P08173 whole entry): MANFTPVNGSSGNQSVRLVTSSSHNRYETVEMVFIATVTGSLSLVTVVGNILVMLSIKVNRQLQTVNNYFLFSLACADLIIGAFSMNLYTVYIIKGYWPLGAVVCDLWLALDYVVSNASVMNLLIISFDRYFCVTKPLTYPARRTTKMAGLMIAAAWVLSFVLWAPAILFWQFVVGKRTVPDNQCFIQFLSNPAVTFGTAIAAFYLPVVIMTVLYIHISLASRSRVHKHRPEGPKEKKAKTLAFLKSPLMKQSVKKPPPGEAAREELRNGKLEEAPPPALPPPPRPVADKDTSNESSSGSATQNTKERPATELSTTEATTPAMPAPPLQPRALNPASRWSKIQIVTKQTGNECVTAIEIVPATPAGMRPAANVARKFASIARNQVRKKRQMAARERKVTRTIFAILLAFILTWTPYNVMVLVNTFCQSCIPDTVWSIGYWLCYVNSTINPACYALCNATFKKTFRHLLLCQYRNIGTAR

[8] = biological target: T5, Muscarinic acetylcholine receptor M5 (Homo sapiens, UniProt P08912); assay: Activity of compound against Muscarinic acetylcholine receptor M5 (CHRM5) by displacement of 3H-QNB
T5 sequence (P08912 whole entry): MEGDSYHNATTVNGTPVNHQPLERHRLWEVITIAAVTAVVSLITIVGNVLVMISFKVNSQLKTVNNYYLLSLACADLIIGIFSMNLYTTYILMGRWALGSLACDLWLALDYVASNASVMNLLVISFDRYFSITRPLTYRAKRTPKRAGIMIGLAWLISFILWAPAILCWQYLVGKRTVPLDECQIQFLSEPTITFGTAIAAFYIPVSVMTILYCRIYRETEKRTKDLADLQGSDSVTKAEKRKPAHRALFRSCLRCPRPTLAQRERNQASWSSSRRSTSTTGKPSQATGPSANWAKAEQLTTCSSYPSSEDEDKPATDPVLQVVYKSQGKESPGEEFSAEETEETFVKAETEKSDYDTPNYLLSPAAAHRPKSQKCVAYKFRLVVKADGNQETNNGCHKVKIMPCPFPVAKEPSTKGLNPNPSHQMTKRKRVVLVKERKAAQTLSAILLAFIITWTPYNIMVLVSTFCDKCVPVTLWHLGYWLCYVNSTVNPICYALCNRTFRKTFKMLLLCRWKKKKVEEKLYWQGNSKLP

Sequence of Muscarinic acetylcholine receptor M3 (P20309 whole entry): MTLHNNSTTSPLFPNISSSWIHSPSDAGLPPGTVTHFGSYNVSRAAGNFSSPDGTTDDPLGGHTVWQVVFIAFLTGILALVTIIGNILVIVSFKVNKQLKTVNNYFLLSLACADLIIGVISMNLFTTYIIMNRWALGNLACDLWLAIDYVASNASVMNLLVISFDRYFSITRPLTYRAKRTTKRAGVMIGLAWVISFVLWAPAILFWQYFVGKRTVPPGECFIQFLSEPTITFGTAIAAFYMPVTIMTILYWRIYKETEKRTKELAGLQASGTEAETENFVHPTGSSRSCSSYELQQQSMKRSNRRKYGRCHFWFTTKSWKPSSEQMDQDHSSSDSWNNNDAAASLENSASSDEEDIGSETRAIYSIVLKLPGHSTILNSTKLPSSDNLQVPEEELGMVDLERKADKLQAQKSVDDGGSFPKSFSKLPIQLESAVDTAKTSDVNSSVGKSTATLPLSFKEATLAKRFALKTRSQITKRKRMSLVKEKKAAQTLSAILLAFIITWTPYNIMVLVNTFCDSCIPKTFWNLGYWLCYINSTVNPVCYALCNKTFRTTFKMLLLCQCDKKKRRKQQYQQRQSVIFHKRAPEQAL
Sequence of Sigma non-opioid intracellular receptor 1 (Q99720 whole entry): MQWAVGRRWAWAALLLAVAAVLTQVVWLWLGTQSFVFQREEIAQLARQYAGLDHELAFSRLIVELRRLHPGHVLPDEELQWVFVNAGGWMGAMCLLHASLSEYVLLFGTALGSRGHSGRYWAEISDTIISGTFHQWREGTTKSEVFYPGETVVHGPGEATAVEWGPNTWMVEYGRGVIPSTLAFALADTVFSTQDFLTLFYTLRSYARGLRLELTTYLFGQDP
Sequence of Sigma intracellular receptor 2 (Q5BJF2 whole entry): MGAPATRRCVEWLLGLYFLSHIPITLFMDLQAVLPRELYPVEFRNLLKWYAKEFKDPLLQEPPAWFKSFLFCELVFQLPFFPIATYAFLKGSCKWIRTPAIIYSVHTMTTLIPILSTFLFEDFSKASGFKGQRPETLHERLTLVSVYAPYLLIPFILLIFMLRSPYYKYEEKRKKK

CCCN1CCC=C(c2cc(-c3ccc(C)cc3)no2)C1
Ki [1]: 10 µM | Ki [2]: > 31.6 µM | Ki [3]: 0.794 µM | Ki [4]: 0.002 µM | Ki [5]: 8.32 µM | Ki [6]: 24 µM | Ki [7]: 24.5 µM | Ki [8]: 28.2 µM
